The text below walks through data of article PMC9525908, “α-Crystallin chaperone mimetic drugs inhibit lens γ-crystallin aggregation: Potential role for cataract prevention” (The Journal of Biological Chemistry, 2022).

Molecules are shown by their SMILES. Where a chain is given by its changes, count along the chain named. Where “and” joins values, the source holds several entries; their conditions need not be identical. Equal entries are not always repeated. Where two headings read alike, the source gives them in different places.

Common to all, as to format: biochemical
One test has as its target T1, HγS (Homo sapiens, UniProt P22914).
T1 sequence (P22914 1-178): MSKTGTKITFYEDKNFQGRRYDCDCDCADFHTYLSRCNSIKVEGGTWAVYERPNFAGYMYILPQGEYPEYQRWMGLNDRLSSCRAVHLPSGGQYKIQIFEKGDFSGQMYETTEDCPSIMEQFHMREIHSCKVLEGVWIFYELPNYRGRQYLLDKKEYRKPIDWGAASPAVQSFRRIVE
Put plainly: Thermal aggregation (72 °C, 20 min) turbidity assay, HγS. The settings on record: 20 min, read-out: % Suppression; for inhibition: HγS, 75 μM protein, 72 °C 20 min. The source says: (§1) For a review, see the study by Roskamp et al. ([38]). […] For the mechanistic studies below these two compounds together with either drug M, chosen mostly as negative control, or the entire set of six compounds were used for comparison purpose, whereby the words “drug” or “compound” are used interchangeably in the studies later.

Test [1] deals with T2, OPJ-MγS (Mus musculus, UniProt O35486, F10S).
T2 construct: made in house; host or cells: E. coli BL21(DE3) pLysS, pET17b vector
T2 sequence (O35486 1-178 F10S): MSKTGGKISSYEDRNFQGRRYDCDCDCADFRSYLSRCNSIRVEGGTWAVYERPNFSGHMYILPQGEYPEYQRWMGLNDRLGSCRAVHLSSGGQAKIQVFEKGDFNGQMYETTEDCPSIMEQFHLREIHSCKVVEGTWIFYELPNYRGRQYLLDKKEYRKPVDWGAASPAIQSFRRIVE
Put plainly: Dynamic light scattering, OPJ-MγS. The settings on record: 400 μM drug; for Suppression of aggregate formation, DLS temperature scan: OPJ-MγS, 30–90 °C; for Percent Mass Peak 1 / Percent Mass Peak 2 / Radius (nm) Peak 1 / Radius (nm) Peak 2: OPJ-MγS 45 μM, 72 °C 20 min. Here is the method: (§2) Efficacy of our selected drugs in preventing the formation of protein aggregates was measured by DLS. Measurements were performed on a Wyatt DynaPro Nanostar. For DLS temperature scan experiment, pure and filtered protein samples (1 mg/ml in 10 mM sodium phosphate buffer, pH 7.2) with and without drugs (400 μM) were analyzed by DLS over a temperature range of 30 to 90 °C. Multiple scans were run for every data point, and the results represent average of individual scans. DLS spectra were also recorded for the samples at the end point of turbidity assay.

Another test addresses T3, WT-MγS (Mus musculus, UniProt O35486).
T3 construct: made in house; host or cells: E. coli BL21(DE3) pLysS, pET17b vector
T3 sequence (O35486 1-178): T2 sequence (O35486 1-178 F10S) with S10F
Put plainly: Dynamic light scattering, WT-MγS. The settings on record: 400 μM drug; for Suppression of aggregate formation, DLS temperature scan: WT-MγS, 30–90 °C. As to the method:
as §2

The next test has as its target T4, HγS_N14D (Homo sapiens, UniProt P22914, N15D).
T4 sequence (P22914 1-178 N15D): T1 sequence (P22914 1-178) with N15D
The test can be described thus: Thermal aggregation (72 °C, 20 min) turbidity assay, HγS_N14D. To be noted: read-out: % Suppression; for inhibition: HγS_N14D, 75 μM protein, 72 °C 20 min.
From the text: as §1

For test [2], the system named is γ-crystallins (bovine, HγD and HγS crystallins). The test can be described thus: Mean aggregation suppression across all γ-crystallins tested. Also on record: concentration or dose not given beside the values. To be noted: mean of all experiments in Table 2 (n=9).
From the text: as §1
Table S 4: List of primers used for making WT -HγD mutants

The target of test [3] is T2, OPJ-MγS. The test can be described thus: End-point heat-mediated turbidity assay, OPJ-MγS. The settings on record: read-out: Percent Inhibition of heat mediated aggregation, OPJ-MGS. As to the method: Absorbance was measured at 600 nm with a SpectraMax iD5 (Molecular Devices).
Aggregation kinetics assays at 600 nm in the presence of varying concentrations (0, 100, 200, 300, 400, and 500 μM) of our selected drugs were also performed on mutants of HγD (W43R, W42Q, R14C, and R58H) and MγS (F9S) at a concentration of 1 mg/ml in 50 mM K3PO4 buffer (pH 7.2) in a total volume of 100 μl. WT-HγD and WT-MγS crystallin served as controls for their respective mutant versions. […] Absorbance was monitored every 10 min. […] All the experiments were run in duplicates or triplicates.

Another test addresses T5, HγS_N76D (Homo sapiens, UniProt P22914, N77D).
T5 sequence (P22914 1-178 N77D): T1 sequence (P22914 1-178) with N77D
Put plainly: Thermal aggregation (72 °C, 20 min) turbidity assay, HγS_N76D. To be noted: read-out: % Suppression; for inhibition: HγS_N76D, 75 μM protein, 72 °C 20 min.
From the text: as §1

The next test has as its target T6, HγS_N143D (Homo sapiens, UniProt P22914, N144D).
T6 sequence (P22914 1-178 N144D): T1 sequence (P22914 1-178) with N144D
Put plainly: Thermal aggregation (72 °C, 20 min) turbidity assay, HγS_N143D. The settings on record: 20 min, read-out: % Suppression; for inhibition: HγS_N143D, 75 μM protein, 72 °C 20 min.
From the text: as §1

The next test has as its target T7, HγS_N14/76/143D (Homo sapiens, UniProt P22914, N144D/N15D/N77D).
T7 sequence (P22914 1-178 N15D/N77D/N144D): T1 sequence (P22914 1-178) with N15D, N77D, N144D
Put plainly: Thermal aggregation (72 °C, 20 min) turbidity assay, HγS triple mutant. To be noted: read-out: % Suppression; for inhibition: HγS_N14/76/143D, 75 μM protein, 72 °C 20 min.
From the text: as §1

[4] abbreviates: 500 μM drug, end point of turbidity assay 72 °C 20 min.

Consider `COC(=O)/C=C/C(C)=C\C=C\C(C)=C\C=C\C=C(C)\C=C\C=C(C)\C=C\C(=O)O` [drug B, Bixin], for which the inhibition was 60% on HγS; 51% on HγS_N14D; 57% at HγS_N76D; 25% at HγS_N143D; 46% at HγS_N14/76/143D. In addition, the “Suppression of aggregate formation, DLS temperature scan” value (from here on “Suppression of aggregate formation”) at OPJ-MγS [1] and on WT-MγS was “mild suppressive effects” each time. Besides, the “Mean % suppression / inhibition of γ-crystallin aggregation against thermal denaturation” value (from here on “Mean % suppression / inhibition”) in [2] was 49% and 48.8%. Moreover, the inhibition at 500 µM at OPJ-MγS [3] (setting [4]) was determined as 77.6 ± 0.21%.
In the case of `Cc1cc(C(C#N)c2ccc(Cl)cc2)c(Cl)cc1NC(=O)c1cc(I)cc(I)c1O` (stereo not drawn) [drug C, Closantel], the inhibition at 125 µM on HγS came out at 71%; at HγS_N14D it was 77%; on HγS_N76D it was 70%; on HγS_N143D, 52%; at HγS_N14/76/143D it was 76%. The “Percent Mass Peak 1” value on OPJ-MγS [1] came to 32%; at WT-MγS (WT-MγS 45 μM, 72 °C 20 min), 100%. Moreover, the “Percent Mass Peak 2” value at OPJ-MγS [1] stood at 68%. For the same compound, the “Radius (nm) Peak 1” value at OPJ-MγS [1] is 21.9 nm; on WT-MγS (WT-MγS 45 μM, 72 °C 20 min) it was 86.6 nm. Moreover, the “Radius (nm) Peak 2” value at OPJ-MγS [1] was determined as 358.7 nm. Besides, the “Suppression of aggregate formation” value on OPJ-MγS [1] and at WT-MγS was “strong suppressive effects” each time. Besides, the “Mean % suppression / inhibition” value in test [2] is 69% and 68.6%. In addition, on OPJ-MγS [3], the inhibition at 500 µM is 82 ± 0.49%.
`CC(C)=CCCC1(C)C=Cc2c(O)c3c(c(CC=C(C)C)c2O1)OC12C(=CC4CC1C(C)(C)OC2(C/C=C(/C)C(=O)O)C4O)C3=O` (stereo not drawn) [drug D, dihydrogambogic acid]: the inhibition at 125 µM on HγS is 61%; on HγS_N14D, 76%; at HγS_N76D, 59%; on HγS_N143D, 30%; on HγS_N14/76/143D, 32%. In addition, the “Suppression of aggregate formation” value on OPJ-MγS [1] and at WT-MγS was “mild suppressive effects” throughout. In test [2], the “Mean % suppression / inhibition” value was determined as 54%. Also, the inhibition at 500 µM on OPJ-MγS [3] amounted to 85.1 ± 0.68%.
Regarding `CC(C)=CCC[C@]1(C)C=Cc2c(O)c3c(c(CC=C(C)C)c2O1)O[C@]12C(=C[C@@H]4C[C@H]1C(C)(C)O[C@@]2(C/C=C(/C)C(=O)O)C4=O)C3=O` [drug G, Gambogic acid], the inhibition at 125 µM is 46% on HγS; 73% at HγS_N14D; 55% on HγS_N76D; 48% on HγS_N143D; 89% on HγS_N14/76/143D. Besides, the “Percent Mass Peak 1” value is given as 100% at OPJ-MγS [1] and 100% on WT-MγS (WT-MγS 45 μM, 72 °C 20 min). Besides, the “Radius (nm) Peak 1” value at OPJ-MγS [1] turned out to be 79.3 nm; on WT-MγS (WT-MγS 45 μM, 72 °C 20 min), 77.9 nm. The “Suppression of aggregate formation” value on OPJ-MγS [1] and on WT-MγS was “strong suppressive effects” throughout. Further, in test [2], the “Mean % suppression / inhibition” value was 64% and 64.2%. Further, at OPJ-MγS [3], the inhibition at 500 µM was 91.6 ± 0.09%.
As to `O=C(O)CCCCCCCCCCCC[C@@H]1C=CCC1` [drug M, Chaulmoogric acid], the inhibition at HγS came to 39%; on HγS_N14D it was 48%; at HγS_N76D, 55%; at HγS_N143D, 25%; on HγS_N14/76/143D, 46%. Also, the “Percent Mass Peak 1” value at OPJ-MγS [1] is 0%; on WT-MγS (WT-MγS 45 μM, 72 °C 20 min), 1.4%. The “Percent Mass Peak 2” value came to 100% on OPJ-MγS [1] and 98.6% at WT-MγS (WT-MγS 45 μM, 72 °C 20 min). In addition, the “Radius (nm) Peak 1” value on OPJ-MγS [1] was 53.1 nm; on WT-MγS (WT-MγS 45 μM, 72 °C 20 min), 622.0 nm. Further, the “Radius (nm) Peak 2” value on OPJ-MγS [1] is given as 5594.1 nm; at WT-MγS (WT-MγS 45 μM, 72 °C 20 min), 6200.7 nm. In addition, the “Suppression of aggregate formation” value on OPJ-MγS [1] and at WT-MγS was “no suppression” in each case. For the same compound, in [2], the “Mean % suppression / inhibition” value was 42% and 42.2%. Also, at OPJ-MγS [3] (setting [4]), the inhibition at 500 µM was determined as 33.6 ± 2.36%.
As to `Oc1c(Cl)cc(Cl)c(Cl)c1Cc1c(O)c(Cl)cc(Cl)c1Cl` [drug X, Hexachlorophene], the inhibition at 125 µM came to 68% on HγS; 60% at HγS_N14D; 60% on HγS_N76D; 50% on HγS_N143D; 71% at HγS_N14/76/143D. The “Suppression of aggregate formation” value on OPJ-MγS [1] and on WT-MγS was “mild suppressive effects” in each case. The “Mean % suppression / inhibition” value in test [2] was 56% and 55.8%. Also, the inhibition at 500 µM on OPJ-MγS [3] is 60.9 ± 0.8%.
